Converted amounts (≈) assume the structure as drawn.
Experiments:
Assay in all cases: ≥ marks a high value that may be exact or a test limit, other limits are often not marked, values filed in µg/mL are converted to µM
[1] = test system: Staphylococcus aureus ATCC 29213
Listeria innocua = test system: Listeria innocua
Streptococcus uberis = test system: Streptococcus uberis
Pasteurella multocida = test system: Pasteurella multocida
Leuconostoc lactis = test system: Leuconostoc lactis
Micrococcus luteus = test system: Micrococcus luteus
[2] = test system: Staphylococcus aureus ATCC 25923
[3] = test system: Staphylococcus epidermidis
Pseudomonas haemolytica = test system: Pseudomonas haemolytica
[4] = test system: Staphylococcus aureus ATCC 43300
[5] = test system: Escherichia coli ATCC 25922
[6] = test system: Staphylococcus aureus CMCC 26003
Staphylococcus aureus = test system: Staphylococcus aureus
[7] = test system: Staphylococcus aureus ΔmprFpRBsyn
[8] = test system: Bordetella bronchiseptica CUN 11844-99
[9] = test system: Pseudomonas aeruginosa CUN 4158-02
[10] = test system: Staphylococcus aureus ΔmprF
[11] = test system: Acinetobacter baumannii ATCC 19606
[12] = test system: Pseudomonas aeruginosa ATCC 27853
Yersinia pestis KIM pYV = test system: Yersinia pestis KIM pYV
[13] = test system: Brucella abortus 9.49 (per-)
[14] = test system: Staphylococcus epidermidis ATCC 12228
[15] = test system: Escherichia coli CMCC 44102
Escherichia coli KF130 = test system: Escherichia coli KF130
Escherichia coli KF111 = test system: Escherichia coli KF111
[16] = test system: Pseudomonas aeruginosa H374
[17] = test system: Salmonella enterica subsp. enterica serovar Typhimurium ATCC 14028s
[18] = test system: Pseudomonas aeruginosa K799
[19] = test system: Pseudomonas aeruginosa H744
Escherichia coli = test system: Escherichia coli
Escherichia coli UB1005 = test system: Escherichia coli UB1005
Candida tropicalis = test system: Candida tropicalis
Bacillus megaterium Bm11 = test system: Bacillus megaterium Bm11
[20] = test system: Phytophthora nicotianae PG344
Mammaliicoccus lentus = test system: Mammaliicoccus lentus
[21] = test system: Streptococcus mitis ATCC 903
[22] = test system: Streptococcus sanguinis NY101
[23] = test system: Streptococcus gordonii Challis DL1
[24] = test system: Streptococcus sobrinus ATCC 33478
Enterococcus faecalis = test system: Enterococcus faecalis
[25] = test system: Streptococcus mutans UA159
[26] = test system: Pseudomonas aeruginosa PAK
Escherichia coli W3110 = test system: Escherichia coli W3110

`CC[C@H](C)[C@H](NC(=O)[C@@H](NC(=O)[C@@H]1CCCN1C(=O)[C@@H](NC(=O)[C@@H](NC(=O)[C@H](Cc1cnc[nH]1)NC(=O)[C@@H]1CCCN1C(=O)[C@H](CC(C)C)NC(=O)[C@@H](NC(=O)[C@H](Cc1cnc[nH]1)NC(=O)[C@H](CCCCN)NC(=O)[C@H](C)NC(=O)[C@@H](NC(=O)[C@H](C)NC(=O)CNC(=O)[C@H](CC(C)C)NC(=O)[C@@H](NC(=O)[C@H](CO)NC(=O)[C@H](Cc1ccccc1)NC(=O)[C@H](CC(C)C)NC(=O)CN)C(C)C)C(C)C)C(C)C)C(C)C)C(C)C)C(C)C)C(=O)N[C@@H](C)C(=O)N[C@@H](CCC(=O)O)C(=O)N[C@@H](CCCCN)C(=O)N[C@@H](CC(C)C)C(N)=O` [GLFSVLGAVAKHVLPHVVPVIAEKL] gave an MIC [1] of 4.63 µM (≈ 12 µg/mL), an MIC (Listeria innocua) of 19.3 µM (≈ 50 µg/mL) and an MIC (Streptococcus uberis) of 9.64 µM (≈ 25 µg/mL). For the same compound, the MIC (Pasteurella multocida) was 9.64 µM (≈ 25 µg/mL), the MIC (Leuconostoc lactis) was 1.16 µM (≈ 3 µg/mL) and the MIC (Micrococcus luteus) was 9.64 µM (≈ 25 µg/mL). It also gave an MIC [2] of 2.31 µM (≈ 6 µg/mL), an MIC [3] of 4.63 µM (≈ 12 µg/mL) and an MIC (Pseudomonas haemolytica) of 19.3 µM (≈ 50 µg/mL).
`CC[C@H](C)[C@H](NC(=O)[C@H](CCCN=C(N)N)NC(=O)[C@H](CCCN=C(N)N)NC(=O)[C@H](CC(C)C)NC(=O)[C@H](Cc1ccccc1)NC(=O)[C@@H](NC(=O)[C@H](CCCN=C(N)N)NC(=O)[C@H](CCSC)NC(=O)[C@@H](NC(=O)[C@H](CCCCN)NC(=O)[C@H](CCCCN)NC(=O)[C@H](CS)NC(=O)[C@@H](NC(=O)CNC(=O)[C@H](CCCN=C(N)N)NC(=O)[C@H](CC(C)C)NC(=O)[C@@H](NC(=O)[C@@H](N)CCCCN)[C@@H](C)CC)C(C)C)[C@@H](C)CC)[C@@H](C)O)C(=O)N[C@@H](CO)C(=O)N[C@@H](CCCCN)C(=O)N[C@@H](CC(=O)O)C(=O)N[C@H](C(=O)N[C@@H](CC(C)C)C(=O)N[C@H](C(=O)NCC(=O)N[C@@H](CCCCN)C(=O)N[C@@H](CCCCN)C(N)=O)[C@@H](C)O)[C@@H](C)CC` [KILRGVCKKIMRTFLRRISKDILTGKK] was tested, and the MIC [4] was 79.9 µM (≈ 256 µg/mL), the MIC [5] was 5 µM (≈ 16 µg/mL) and the MIC [6] was 2 µM (≈ 6.4 µg/mL). For the same compound, the MIC (Staphylococcus aureus) was 20 µM (≈ 64 µg/mL), the MIC [7] was 2.5 µM (≈ 8 µg/mL) and the MIC [8] was 1.25 µM (≈ 4 µg/mL). It also gave an MIC [9] of 9.99 µM (≈ 32 µg/mL), an MIC [10] of 2.5 µM (≈ 8 µg/mL) and an MIC [11] of 0.624 µM (≈ 2 µg/mL). It also gave an MIC [12] of 8 µM (≈ 25.6 µg/mL), an MIC (Yersinia pestis KIM pYV) of at least 79.9 µM and an MIC [13] of 9.99 µM (≈ 32 µg/mL). For the same compound, the MIC [14] was 2 µM (≈ 6.4 µg/mL) and the MIC [15] was 4 µM (≈ 12.8 µg/mL).
Compound `CC[C@H](C)[C@H](NC(=O)[C@@H]1CCCN1C(=O)[C@H](CCCCN)NC(=O)[C@H](CC(C)C)NC(=O)[C@H](C)NC(=O)[C@@H](NC(=O)[C@H](Cc1cnc[nH]1)NC(=O)[C@H](Cc1ccccc1)NC(=O)[C@@H](NC(=O)[C@@H](NC(=O)[C@H](CCCN=C(N)N)NC(=O)[C@@H](NC(=O)[C@@H]1CCCN1C(=O)[C@H](CO)NC(=O)[C@H](CCCCN)NC(=O)[C@H](Cc1ccccc1)NC(=O)[C@@H](NC(=O)[C@H](CCCN=C(N)N)NC(=O)[C@H](CC(C)C)NC(=O)[C@H](Cc1ccccc1)NC(=O)[C@H](CO)NC(=O)[C@H](CCCCN)NC(=O)[C@H](Cc1c[nH]c2ccccc12)NC(=O)[C@@H](N)CCCCN)[C@@H](C)O)C(C)C)[C@@H](C)O)C(C)C)[C@@H](C)O)C(=O)N[C@@H](CO)C(=O)N[C@@H](CO)C(=O)O` [KWKSFLRTFKSPVRTVFHTALKPISS] has an MIC (Escherichia coli KF130) of 1.31 µM (≈ 4 µg/mL), an MIC (Escherichia coli KF111) of 1.31 µM (≈ 4 µg/mL) and an MIC (Staphylococcus aureus) of over 20.9 µM. The MIC [16] was 5.22 µM (≈ 16 µg/mL), the MIC [17] was 2.61 µM (≈ 8 µg/mL) and the MIC [18] was 5.22 µM (≈ 16 µg/mL). The MIC [19] was 5.22 µM (≈ 16 µg/mL), the MIC [3] was 5.22 µM (≈ 16 µg/mL) and the MIC (Escherichia coli) was 0.653 µM (≈ 2 µg/mL). It also gave an MIC (Escherichia coli UB1005) of 0.653 µM (≈ 2 µg/mL).
`CC(C)C[C@H](N)C(=O)N[C@H](C(=O)N[C@@H](CCCN=C(N)N)C(=O)NCC(=O)N[C@H]1CSSC[C@@H](C(=O)N[C@@H](Cc2ccccc2)C(=O)N[C@H](C(=O)N[C@@H](CCCN=C(N)N)C(N)=O)C(C)C)NC(=O)[C@@H]2CCCN2C(=O)[C@H](CCCCN)NC(=O)[C@@H]2CCCN2C(=O)[C@@H]2CCCN2C(=O)[C@H](Cc2ccc(O)cc2)NC(=O)[C@H](CO)NC(=O)[C@H](CCCCN)NC(=O)[C@H]([C@@H](C)O)NC(=O)[C@H](Cc2c[nH]c3ccccc23)NC1=O)C(C)C` [LVRGCWTKSYPPKPCFVR] showed an MIC (Micrococcus luteus) of 10 µM (≈ 21.3 µg/mL), an MIC (Candida tropicalis) of 11 µM (≈ 23.5 µg/mL) and an MIC (Bacillus megaterium Bm11) of 20 µM (≈ 42.7 µg/mL). It also gave an MIC [20] of at least 75 µM and an MIC (Mammaliicoccus lentus) of at least 50 µM.
For `NCCCC[C@H](NC(=O)[C@H](Cc1c[nH]c2ccccc12)NC(=O)[C@@H](N)Cc1c[nH]c2ccccc12)C(=O)N[C@@H](CC(=O)O)C(=O)N[C@@H](Cc1c[nH]c2ccccc12)C(=O)N[C@@H](Cc1c[nH]c2ccccc12)C(=O)N[C@@H](CCC(=O)O)C(=O)N[C@@H](CCCN=C(N)N)C(=O)N[C@@H](Cc1c[nH]c2ccccc12)C(N)=O` [WWKDWWERW], the MIC [21] was at least 338 µM, the MIC [22] was at least 338 µM and the MIC (Staphylococcus aureus) was over 338 µM. For the same compound, the MIC [23] was at least 338 µM, the MIC [24] was at least 338 µM and the MIC (Enterococcus faecalis) was at least 338 µM. The MIC [25] was at least 338 µM, the MIC [26] was at least 338 µM and the MIC (Escherichia coli W3110) was at least 338 µM.

Reference: DBAASP
